Results: PubChem BioAssay (NCI)
Values joined by “and” are separate entries in the source; they are usually repeats but may differ in a detail not shown here. Equal entries are not always repeated.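 96-well plates; 48 h exposure; 5 concentrations. Endpoints by linear interpolation between flanking doses. Not reached: highest tested concentration assigned. GI50 marks 50% less growth. TGI marks complete inhibition of growth.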

How the values were obtained:
Assay in all cases: inhibition of tumour cell growth, NCI panel, 48 h
[1] = tested on: 786-0 renal
[2] = tested on: A498 renal
[3] = tested on: A549 NSCLC
[4] = tested on: ACHN renal
[5] = tested on: BT-549 breast
[6] = tested on: CAKI-1 renal
[7] = tested on: CCRF-CEM leukemia
[8] = tested on: COLO 205 colon
[9] = tested on: DU-145 prostate
[10] = tested on: EKVX NSCLC
[11] = tested on: HCC-2998 colon
[12] = tested on: HCT-116 colon
[13] = tested on: HCT-15 colon
[14] = tested on: HL-60(TB) leukemia
[15] = tested on: HOP-62 NSCLC
[16] = tested on: HOP-92 NSCLC
[17] = tested on: HS 578T breast
[18] = tested on: HT29 colon
[19] = tested on: IGROV1 ovarian
[20] = tested on: K-562 leukemia
[21] = tested on: KM12 colon
[22] = tested on: LOX IMVI melanoma
[23] = tested on: M14 melanoma
[24] = tested on: MALME-3M melanoma
[25] = tested on: MCF7 breast
[26] = tested on: MDA-MB-231 breast
[27] = tested on: MDA-MB-435
[28] = tested on: MOLT-4 leukemia
[29] = tested on: NCI-H226 lung
[30] = tested on: NCI-H23 lung
[31] = tested on: NCI-H460 lung
[32] = tested on: NCI-H522 lung
[33] = tested on: NCI/ADR-RES ovarian
[34] = tested on: OVCAR-3 ovarian
[35] = tested on: OVCAR-4 ovarian
[36] = tested on: OVCAR-5 ovarian
[37] = tested on: OVCAR-8 ovarian
[38] = tested on: PC-3 prostate
[39] = tested on: RPMI-8226 leukemia
[40] = tested on: RXF 393 renal
[41] = tested on: SF-268 CNS
[42] = tested on: SF-295 CNS
[43] = tested on: SF-539 CNS
[44] = tested on: SK-MEL-2 melanoma
[45] = tested on: SK-MEL-28 melanoma
[46] = tested on: SK-MEL-5 melanoma
[47] = tested on: SK-OV-3 ovarian
[48] = tested on: SN12C renal
[49] = tested on: SNB-19 CNS
[50] = tested on: SNB-75 CNS
[51] = tested on: SR leukemia
[52] = tested on: SW-620 colon
[53] = tested on: T-47D breast
[54] = tested on: TK-10 renal
[55] = tested on: U251 CNS
[56] = tested on: UACC-257 melanoma
[57] = tested on: UACC-62 melanoma
[58] = tested on: UO-31 renal

CCN(CC)CCC(CNc1c2ccc([N+](=O)[O-])cc2nc2cc(OC)c(OC)cc12)c1ccccc1 (stereo unspecified)
GI50 [1]: 1.07 µM and 0.671 µM | TGI [1]: 2.54 µM and 1.93 µM | GI50 [2]: 1.69 µM and 1.19 µM | TGI [2]: 3.12 µM and 2.52 µM | GI50 [3]: 0.177 µM and 0.132 µM | TGI [3]: 0.401 µM and 0.541 µM | GI50 [4]: 0.553 µM and 0.518 µM | TGI [4]: 2.07 µM and 2.06 µM | GI50 [5]: 1.49 µM and 0.74 µM | TGI [5]: 3.78 µM and 2 µM | GI50 [6]: 1.68 µM and 1.58 µM | TGI [6]: 3.78 µM and 3.76 µM | GI50 [7]: 1.19 µM and 1.7 µM | TGI [7]: 7.29 µM and 10.1 µM | GI50 [8]: 0.152 µM and 0.0895 µM | TGI [8]: 0.448 µM and 0.299 µM | GI50 [9]: 0.134 µM and 0.0582 µM | TGI [9]: 1.04 µM and 0.301 µM | GI50 [10]: 0.335 µM and 0.264 µM | TGI [10]: 1.38 µM and 1.13 µM | GI50 [11]: 0.138 µM and 0.114 µM | TGI [11]: 0.348 µM and 0.284 µM | GI50 [12]: 0.0898 µM and 0.0472 µM | TGI [12]: 1.14 µM and 0.491 µM | GI50 [13]: 0.738 µM and 1.03 µM | TGI [13]: 2.14 µM and 3.1 µM | GI50 [14]: 1.82 µM and 2.4 µM | TGI [14]: 3.88 µM and 5.12 µM | GI50 [15]: 0.284 µM and 0.226 µM | TGI [15]: 1.23 µM and 1.1 µM | GI50 [16]: 0.258 µM and 0.0809 µM | TGI [16]: 0.85 µM and 0.404 µM | GI50 [17]: 0.528 µM and 0.272 µM | TGI [17]: 2.88 µM and 1.2 µM | GI50 [18]: 0.0405 µM and 0.0289 µM | TGI [18]: 0.239 µM and 0.1 µM | GI50 [19]: 0.405 µM and 0.29 µM | TGI [19]: 1.66 µM and 1.02 µM | GI50 [20]: 0.142 µM and 0.146 µM | TGI [20]: 1.25 µM and 3.85 µM | GI50 [21]: 0.276 µM and 0.105 µM | TGI [21]: 1.13 µM and 0.542 µM | GI50 [22]: 0.568 µM and 0.527 µM | TGI [22]: 1.86 µM | GI50 [23]: 0.335 µM and 0.305 µM | TGI [23]: 1.4 µM and 1.23 µM | GI50 [24]: 0.201 µM and 0.191 µM | TGI [24]: 0.454 µM and 0.479 µM | GI50 [25]: 0.0363 µM and 0.0428 µM | TGI [25]: 0.905 µM and 1.23 µM | GI50 [26]: 0.174 µM and 0.178 µM | TGI [26]: 0.627 µM and 0.73 µM | GI50 [27]: 0.161 µM and 0.148 µM | TGI [27]: 0.311 µM and 0.319 µM | GI50 [28]: 0.317 µM and 0.444 µM | TGI [28]: 2.41 µM and 5.93 µM | GI50 [29]: 0.26 µM and 0.329 µM | TGI [29]: 0.869 µM and 1.47 µM | GI50 [30]: 0.292 µM and 0.287 µM | TGI [30]: 1.23 µM and 1.29 µM | GI50 [31]: 0.118 µM and 0.0525 µM | TGI [31]: 1.05 µM and 0.631 µM | GI50 [32]: 0.345 µM and 0.166 µM | TGI [32]: 1.46 µM and 0.435 µM | GI50 [33]: 1.53 µM and 1.72 µM | TGI [33]: 5.1 µM and 5.07 µM | GI50 [34]: 0.269 µM and 0.0927 µM | TGI [34]: 1.01 µM and 0.335 µM | GI50 [35]: 0.271 µM and 0.228 µM | TGI [35]: 1.03 µM and 0.863 µM | GI50 [36]: 0.487 µM and 0.755 µM | TGI [36]: 1.93 µM and 2.3 µM | GI50 [37]: 0.45 µM and 0.166 µM | TGI [37]: 1.87 µM and 0.978 µM | GI50 [38]: 0.305 µM and 0.209 µM | TGI [38]: 1.01 µM and 0.98 µM | GI50 [39]: 0.272 µM and 0.0638 µM | TGI [39]: 1.15 µM and 0.411 µM | GI50 [40]: 0.541 µM and 0.228 µM | TGI [40]: 1.77 µM and 0.662 µM | GI50 [41]: 0.238 µM and 0.109 µM | TGI [41]: 1.29 µM and 0.573 µM | GI50 [42]: 1.09 µM and 0.93 µM | TGI [42]: 2.49 µM and 2.65 µM | GI50 [43]: 0.38 µM and 0.423 µM | TGI [43]: 1.46 µM and 1.64 µM | GI50 [44]: 0.229 µM and 0.0816 µM | TGI [44]: 0.609 µM and 0.253 µM | GI50 [45]: 0.347 µM and 0.278 µM | TGI [45]: 1.23 µM and 0.831 µM | GI50 [46]: 0.445 µM | TGI [46]: 1.47 µM | GI50 [47]: 0.844 µM and 0.695 µM | TGI [47]: 2.17 µM and 2.55 µM | GI50 [48]: 0.229 µM and 0.218 µM | TGI [48]: 1.22 µM and 1.49 µM | GI50 [49]: 0.214 µM and 0.177 µM | TGI [49]: 1.24 µM | GI50 [50]: 0.33 µM and 0.673 µM | TGI [50]: 1.62 µM and 2.15 µM | GI50 [51]: 0.0379 µM and 0.057 µM | TGI [51]: 0.521 µM and 3.57 µM | GI50 [52]: 0.145 µM and 0.0727 µM | TGI [52]: 1.1 µM and 0.763 µM | GI50 [53]: 0.822 µM and 0.541 µM | TGI [53]: 2.97 µM and 2.61 µM | GI50 [54]: 1.04 µM and 0.485 µM | TGI [54]: 2.27 µM and 1.62 µM | GI50 [55]: 0.294 µM and 0.203 µM | TGI [55]: 1.13 µM and 1.22 µM | GI50 [56]: 0.41 µM and 0.365 µM | TGI [56]: 1.43 µM and 1.3 µM | GI50 [57]: 0.542 µM and 0.696 µM | TGI [57]: 1.91 µM and 2.01 µM | GI50 [58]: 1.1 µM and 0.956 µM | TGI [58]: 2.43 µM and 2.6 µM
